Laboratory results as given in the supplement of paper PMC10331698.
± gives the standard deviation of the averaged measurements.

Tests used:
Test in all cases: level (log10 ratio to DMSO vehicle control); higher = higher biomarker level / cell amount than vehicle control
Conditions in all cases: in DMSO
[1] = compound: O=S(=O)(O)CCC(F)(F)C(F)(F)C(F)(F)C(F)(F)C(F)(F)C(F)(F)F [6:2 Fluorotelomer sulfonic acid]
Procedure: (§1)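 BioMAP Diversity Plus panel of 12 human primary cell co-culture systems (3C, 4H, LPS, SAg, BT, BF4T, BE3C, CASM3C, HDF3CGF, KF3CT, MyoF, Mphg). Compounds were added 1 h before stimulation and left for 24 h (MyoF 48 h; BT 72 h for soluble read-outs or 6 d for IgG). Biomarkers were read by ELISA, cytotoxicity by SRB, PBMC viability and proliferation by Alamar Blue. Each well value was divided by the mean of 8 DMSO control wells on the same plate and log10 transformed; duplicate blinded samples were tested at 4 concentrations.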

Octafluoroadipamide = compound: NC(=O)C(F)(F)C(F)(F)C(F)(F)C(F)(F)C(N)=O [Octafluoroadipamide]
Procedure: as §1

[2] = compound: FC(F)(F)C(F)(F)C(F)(F)C(F)(F)C(F)(F)C(F)(F)CC1CO1 [3-(Perfluorohexyl)-1,2-epoxypropane]
Procedure: as §1

[3] = compound: FC(F)(F)C(F)(F)CNCC(F)(F)C(F)(F)F [Bis(1H,1H-perfluoropropyl)amine]
Procedure: as §1

[4] = compound: NC(=O)C(F)(F)C(F)(F)C(F)(F)C(F)F
Procedure: as §1

| Test System | level (log10) ([1]; 6700 nM) | level (log10) ([1]; 20000 nM) | level (log10) ([1]; 60000 nM) | level (log10) (Octafluoroadipamide; 6700 nM) | level (log10) (Octafluoroadipamide; 20000 nM) | level (log10) (Octafluoroadipamide; 60000 nM) | level (log10) ([2]; 6700 nM) | level (log10) ([2]; 20000 nM) | level (log10) ([2]; 60000 nM) | level (log10) ([3]; 6700 nM) | level (log10) ([3]; 20000 nM) | level (log10) ([3]; 60000 nM) | level (log10) ([4]; 6700 nM) | level (log10) ([4]; 20000 nM) | level (log10) ([4]; 60000 nM) |
| --- | --- | --- | --- | --- | --- | --- | --- | --- | --- | --- | --- | --- | --- | --- | --- |
| 3C:Proliferation | 0.0055 ± 0.0021 | 0.012 ± 0.027 | 0.0305 ± 0.039 | -0.0265 ± 0.036 | 0.0065 ± 0.067 | -0.0085 ± 0.063 | -0.013 ± 0.0042 | -0.0055 ± 0.054 | -0.0375 ± 0.035 | 0.008 ± 0.023 | 0.0205 ± 0.00071 | -0.0025 ± 0.018 | -0.0385 ± 0.049 | -0.038 ± 0.061 | -0.03 ± 0.031 |
| 3C:SRB | 0.001 ± 0.0099 | 0.002 ± 0.0057 | -0.0045 ± 0.028 | -0.0105 ± 0.047 | -0.008 ± 0.052 | -0.005 ± 0.03 | 0.009 ± 0.0042 | 0.014 ± 0.0085 | 0.018 ± 0.0099 | -0.02 ± 0.021 | 0.0105 ± 0.0092 | 0.0075 ± 0.0064 | -0.0075 ± 0.019 | -0.013 ± 0.0014 | -0.019 ± 0.023 |
| 4H:CCL26/Eotaxin-3 | 0.017 ± 0.0014 | -0.0285 ± 0.023 | -0.095 ± 0.018 | 0.04 ± 0.038 | 0.025 ± 0.069 | 0.012 ± 0.069 | -0.001 ± 0.011 | -0.001 ± 0.0028 | 0.005 ± 0.0057 | 0.06 ± 0.045 | 0.0245 ± 0.059 | 0.041 ± 0.064 | 0.0095 ± 0.037 | 0.0315 ± 0.029 | 0.0275 ± 0.016 |
| 4H:CD62P/P-selectin | -0.004 ± 0.064 | -0.003 ± 0.051 | -0.013 ± 0.054 | -0.013 ± 0.0042 | -0.0165 ± 0.032 | -0.0175 ± 0.016 | 0.0055 ± 0.016 | -0.0015 ± 0.019 | 0.013 ± 0.017 | -0.0155 ± 0.025 | -0.02 ± 0.0028 | 0.005 ± 0.013 | -0.017 | -0.017 ± 0.031 | 0.0195 ± 0.029 |
| 4H:CD87/uPAR | -0.0005 ± 0.029 | 0.001 ± 0.031 | -0.002 ± 0.04 | -0.036 ± 0.045 | -0.031 ± 0.023 | -0.065 ± 0.0057 | 0.0645 ± 0.044 | 0.0775 ± 0.018 | 0.107 ± 0.022 | -0.0665 ± 0.029 | -0.027 ± 0.035 | -0.047 ± 0.064 | 0.0335 ± 0.013 | 0.044 ± 0.033 | 0.006 ± 0.038 |
| 4H:CD106/VCAM-1 | -0.0415 ± 0.0078 | -0.0245 ± 0.0021 | -0.0625 ± 0.033 | 0.0105 ± 0.028 | 0.015 | 0.0235 ± 0.018 | -0.002 ± 0.027 | -0.0225 ± 0.00071 | -0.0025 ± 0.011 | 0.0125 ± 0.016 | 0.006 ± 0.035 | 0.0155 ± 0.039 | -0.0145 ± 0.005 | -0.021 ± 0.0085 | -0.007 ± 0.0057 |
| 4H:SRB | -0.0015 ± 0.0021 | 0.0035 ± 0.018 | -0.004 ± 0.027 | -0.0065 ± 0.022 | -0.001 ± 0.025 | -0.003 ± 0.013 | 0.007 ± 0.0028 | -0.003 ± 0.0057 | 0.015 ± 0.023 | -0.0245 ± 0.013 | 0 ± 0.017 | 0.0015 ± 0.013 | -0.0195 ± 0.0078 | -0.0055 ± 0.005 | -0.017 ± 0.021 |
| BE3C:Keratin 8/18 | 0.001 ± 0.0071 | -0.0185 ± 0.00071 | -0.0085 ± 0.019 | -0.0115 ± 0.005 | -0.0185 ± 0.0092 | 0.0105 ± 0.043 | -0.0045 ± 0.00071 | -0.0115 ± 0.00071 | 0.0015 ± 0.018 | -0.008 ± 0.0028 | -0.007 ± 0.0014 | 0.006 ± 0.024 | -0.0045 ± 0.0092 | -0.0025 ± 0.005 | -0.0185 ± 0.033 |
| BE3C:MMP-1 | -0.013 ± 0.017 | -0.0105 ± 0.018 | 0.078 ± 0.054 | -0.01 ± 0.0028 | -0.023 ± 0.037 | 0.0305 ± 0.074 | 0.022 ± 0.075 | 0.0255 ± 0.061 | 0.0655 ± 0.03 | -0.0145 ± 0.026 | -0.014 ± 0.011 | 0.0185 ± 0.049 | 0.003 ± 0.054 | -0.001 ± 0.0014 | 0.024 ± 0.0057 |
